{"source": "patent EP0491828B1", "about": "“PEPTIDES FROM GTPase-ACTIVATING PROTEIN (GAP), DIAGNOSTIC AND THERAPEUTIC USE THEREOF” (CHIRON CORPORATION, priority 1989, dated 1999)", "key": {"ras p21 protein [1]": {"tested_on": "ras p21 protein", "test": "Filter assay of GTP hydrolysis by ras p21 protein (32-P gamma-GTP), with and without GAP", "format": "biochemical", "conditions": "in the presence and absence of GAP; 30 minutes at room temperature", "experimental": "The above four peptides, in the following two experiments, were tested for their abilities to inhibit the hydrolysis of GTP by ras p21 protein, in the presence and absence of GAP. The first experiment involved peptides G65, G73 and 891. It was carried out as follows: purified wild type ras p21 protein was incubated with 0.25 µM 32-P gamma-GTP in 100 mM NaPO4, pH 6.8, 0.5 mM DTT, 0.5 mM EDTA, 0.005% Na cholate, and 0.5 mg/ml BSA for 15 minutes at 30°C. The mixture was then diluted ten fold with TNM buffer (comprising 20 mM Tris-HCl, pH 7.0, 100 mM NaCl, 5 mM MgCl2). 20 µl (0.05 µg of p21) of this mixture was then combined with 2 µl of the peptide in 25 mM NaOAc, pH 5.5 and incubated for 5 minutes at room temperature. The GAP assay, was initiated by the addition of 12 ng GAP in 5 µl TNM buffer with 1 mg/ml BSA or 5 µl TNM BSA buffer for the GAP independent reactions, and the resulting mixture was incubated for 30 minutes at room temperature. The samples were then filtered through nitrocellulose membranes and washed three times with cold TNM. The filters were dried and their radioactivity counted. […] In the presence of GAP, the radioactive ras p21-GTP complex is hydrolyzed to GDP and ras p21 protein, thus reducing the resulting amount of radioactive p21-GTP bound to the filter and consequently, the radioactive counts detected. […]"}, "ras p21 protein [2]": {"tested_on": "ras p21 protein", "test": "GDP/GTP ratio assay of p21-GTP hydrolysis (alpha-32-P-GTP, PEI cellulose chromatography), with and without GAP", "format": "biochemical", "conditions": "in the presence of GAP; control peptide, no concentration stated", "experimental": "Another experiment comparing the efficacy of cGAP 13 and peptide 891 in preventing the hydrolysis of GTP was carried out as follows. The assay measured the ratio of GDP formed resulting from the hydrolysis of GTP to the remaining GTP in the assay solution. Peptides 891, cGAP 13, and G65 were separately tested in the presence and absence of GAP, Peptide G65, which served as a control, and α-32-P-GTP were used.\nThe assay was carried out as follows. The p21-GTP was diluted at a ratio of 1 to 10 in an assay buffer consisting of TNM at pH 7.0, 1mM DTT, and 100 µM GTP. A mixture consisting of 20 λ of p21 at 0.25 µM, and 2 λ of the peptide (in TNM, 1mM DTT and 100 µM GTP) was prepared. To this mixture was added 5 λ, i.e. 12ng of GAP diluted in TNM and 1 mg/ml BSA; for experiments without GAP, 5λ TNM/BSA were added instead. The resulting mixture was incubated for 30 minutes at room temperature. The reaction was stopped and the nucleotides were eluted from ras p21 protein with 2% SDS, 40 mM EDTA at 65°C for 5 minutes. The nucleotides were chromatographed on PEI Cellulose in 1M LiCl. GTP and GDP spots were visualized with autoradiography and identified by means of standard solutions. The individual spots from the PEI cellulose plates were scraped and the radioactivity counted."}}, "data": [{"substance": "peptide G65: synthetic peptide corresponding to positions 876-890 of the full length GAP; served as a control (CLQKSVQHKWPTNTT; UniProt P20936 876-890, looked up, fragment)", "values": [{"measurement": "hydrolysis of GTP by ras p21 protein (radioactive counts per minute of ras p21-GTP complex on filter)", "setting": "ras p21 protein [1]", "result": "do not affect the hydrolysis of GTP"}, {"measurement": "hydrolysis of p21-GTP (ratio of radioactive counts of GDP over GTP)", "setting": "ras p21 protein [2]", "result": "exhibits no inhibitory effect on p21-GTP hydrolysis"}]}, {"substance": "peptide G73: synthetic peptide corresponding to positions 975-990 of the full length GAP (GNVPELPDTTEHSRTD; UniProt P20936 975-990, looked up, fragment)", "values": [{"measurement": "hydrolysis of GTP by ras p21 protein (radioactive counts per minute of ras p21-GTP complex on filter)", "setting": "ras p21 protein [1]", "result": "do not affect the hydrolysis of GTP"}]}]}
